Laboratory results as given in US11065311B2, “Retroviral vector with mini-promoter cassette” (DENOVO BIOPHARMA LLC, priority 2012, dated 2021).

Tested on: U87 cells
Settings: MTS
Procedure: Cell were seeded at 3E3 cells in 96-well plates the day before. At 24 hour post cell seeding, PALA at 0.00975, 0.039, 0.156, 0.625, 2.5, 10, 40 and 160 uM were added to the culture for 5 consecutive days followed by an MTS assay to determine the cell viability. […] A range of cytosine concentrations (0.2, 1, 5 10 mM) in culture was also determined by performing the same experiment described above.

Nc1cc[nH]c(=O)n1 [cytosine]
tolerance of cells to cytosine (0.2, 1, 5 10 mM cytosine in culture): tolerate cytosine in all concentrations tested

N-(phosphonacetyl)-L-aspartate [PALA]
IC50 (read-out: ICH of PALA, naive U87, U87 with pAC3-yCD2 and with pAC3.S1-yCD2, 5 consecutive days): 8 to 30 µM
